In US20220132852A1, “PESTICIDALLY ACTIVE HETEROCYCLIC DERIVATIVES WITH SULFUR CONTAINING SUBSTITUENTS” (SYNGENTA CROP PROTECTION AG, priority 2019, published 2022):

Experiments:
Assay type in all cases: in vivo
[1] = system: Diabrotica balteata (Corn Root Worm); test: Example B1: Activity against Diabrotica balteata (corn root worm), sprayed maize sprouts; conditions: 96 h, application rate 200 ppm, L2 larvae on sprayed maize sprouts, 4 days after infestation, read-out: effect in at least one of the two categories (mortality or growth inhibition)
Procedure: Example B1: Activity Against Diabrotica balteata (Corn Root Worm)
Maize sprouts placed onto an agar layer in 24-well microtiter plates were treated with aqueous test solutions prepared from 10′000 ppm DMSO stock solutions by spraying. After drying, the plates were infested with L2 larvae (6 to 10 per well). The samples were assessed for mortality and growth inhibition in comparison to untreated samples 4 days after infestation.

[2] = system: Euschistus heros (Neotropical Brown Stink Bug); test: Example B2: Activity against Euschistus heros (neotropical brown stink bug), sprayed soybean leaves; conditions: 120 h, application rate 200 ppm, N2 nymphs on sprayed soybean leaves, 5 days after infestation, read-out: effect in at least one of the two categories (mortality or growth inhibition)
Procedure: Example B2: Activity Against Euschistus heros (Neotropical Brown Stink Bug)
Soybean leaves on agar in 24-well microtiter plates were sprayed with aqueous test solutions prepared from 10′000 ppm DMSO stock solutions. After drying the leaves were infested with N2 nymphs. The samples were assessed for mortality and growth inhibition in comparison to untreated samples 5 days after infestation.

[3] = system: Plutella xylostella (Diamond Back Moth); test: Example B3: Activity against Plutella xylostella (diamond back moth), artificial diet; conditions: 192 h, application rate 200 ppm, eggs on artificial diet, 8 days after infestation, read-out: effect in at least one of the two categories (mortality or growth inhibition)
Procedure: Example B3: Activity Against Plutella xylostella (Diamond Back Moth)
24-well microtiter plates with artificial diet were treated with aqueous test solutions prepared from 10′000 ppm DMSO stock solutions by pipetting. After drying, Plutella eggs were pipetted through a plastic stencil onto a gel blotting paper and the plate was closed with it. The samples were assessed for mortality and growth inhibition in comparison to untreated samples 8 days after infestation. The following compounds gave an effect of at least 80% in at least one of the two categories (mortality or growth inhibition) at an application rate of 200 ppm: P2, P4, P5, P6, P8, P9, P10, P11, P12, P14, P15, P16, P17, P18, P19, P20, P21, P22, P23, P24, P25, P26, P27, P28, P29, P30, P31, P32, P33, P34, P35, P36, P38, P39, P40, P42, P45, P46, P47, P49, P50, P51, P52.

[4] = system: Myzus persicae (Green Peach Aphid); test: whole plant or invertebrate; conditions: foliar, 144 h, application rate 200 ppm, sprayed sunflower leaf discs, mixed ages, 6 days after infestation
Procedure: Example B4: Activity Against Myzus persicae (Green Peach Aphid) Feeding/Contact Activity
Sunflower leaf discs were placed onto agar in a 24-well microtiter plate and sprayed with aqueous test solutions prepared from 10′000 ppm DMSO stock solutions. After drying, the leaf discs were infested with an aphid population of mixed ages. The samples were assessed for mortality 6 days after infestation.

[5] = system: Myzus persicae (Green Peach Aphid); test: Example B5: Activity against Myzus persicae (green peach aphid), systemic activity; conditions: 144 h, test rate 24 ppm, roots of pea seedlings in test solution, mixed ages, 6 days
Procedure: Example B5: Activity Against Myzus persicae (Green Peach Aphid) Systemic Activity
Roots of pea seedlings infested with an aphid population of mixed ages were placed directly into aqueous test solutions prepared from 10′000 DMSO stock solutions. The samples were assessed for mortality 6 days after placing seedlings into test solutions.

[6] = system: Spodoptera littoralis (Egyptian Cotton Leaf Worm); test: Example B6: Activity against Spodoptera littoralis (Egyptian cotton leaf worm); conditions: foliar, 72 h, application rate 200 ppm, L1 larvae on sprayed cotton leaf discs, 3 days after infestation, read-out: control (mortality, anti-feeding effect or growth inhibition)
Procedure: Example B6: Activity Against Spodoptera littoralis (Egyptian Cotton Leaf Worm)
Cotton leaf discs were placed onto agar in 24-well microtiter plates and sprayed with aqueous test solutions prepared from 10′000 ppm DMSO stock solutions. After drying the leaf discs were infested with five L1 larvae. The samples were assessed for mortality, anti-feeding effect, and growth inhibition in comparison to untreated samples 3 days after infestation. Control of Spodoptera littoralis by a test sample is given when at least one of the categories mortality, anti-feedant effect, and growth inhibition is higher than the untreated sample.

[7] = system: Frankliniella occidentalis (Western Flower Thrips); test: Example B8: Activity against Frankliniella occidentalis (western flower thrips); conditions: foliar, 168 h, application rate 200 ppm, sprayed sunflower leaf discs, mixed ages, 7 days after infestation
Procedure: Example B8: Activity Against Frankliniella occidentalis (Western Flower Thrips)
Sunflower leaf discs were placed on agar in 24-well microtiter plates and sprayed with aqueous test solutions prepared from […] stock solutions. After drying the leaf discs were infested with a Frankliniella population of mixed ages. The samples were assessed for mortality 7 days after infestation.

[8] = system: Bemisia tabaci (Cotton White Fly); test: Example B7: Activity against Bemisia tabaci (cotton white fly); conditions: foliar, 144 h, application rate 200 ppm, adult white flies on sprayed cotton leaf discs, 6 days after incubation
Procedure: Example B7: Activity Against Bemisia tabaci (Cotton White Fly)
Cotton leaf discs were placed on agar in 24-well microtiter plates and sprayed with aqueous test solutions prepared from 10′000 ppm DMSO stock solutions. After drying the leaf discs were infested with adult white flies. The samples were checked for mortality 6 days after incubation.

CCS(=O)(=O)c1cc(N(C)C(C)=O)cnc1-c1cc2cnn(CC(F)(F)C(F)(F)F)c2cn1 [Compound P2, N-[5-ethylsulfonyl-6-[1-(2,2,3,3,3-pentafluoropropyl)pyrazolo[3,4-c]pyridin-5-yl]-3-pyridyl]-N-methyl-acetamide]
≥ 80%: percent effect (mortality or growth inhibition) at 200 ppm [1] | percent effect (mortality or growth inhibition) at 200 ppm [2] | percent effect (mortality or growth inhibition) at 200 ppm [3] | mortality at 200 ppm [4] | mortality at 24 ppm [5] | percent control (mortality, anti-feedant effect or growth inhibition) at 200 ppm [6]

CCS(=O)(=O)c1cc(C2(C#N)CC2)cnc1-c1cc2ncn(CC(F)(F)C(F)(F)F)c2cn1 [Compound P34, 1-[5-ethylsulfonyl-6-[3-(2,2,3,3,3-pentafluoropropyl)imidazo [4,5-c]pyridin-6-yl]-3-pyridyl]cyclopropane-carbonitrile]
≥ 80%: percent effect (mortality or growth inhibition) at 200 ppm [1] | percent effect (mortality or growth inhibition) at 200 ppm [2] | percent effect (mortality or growth inhibition) at 200 ppm [3] | mortality at 200 ppm [4] | mortality at 24 ppm [5]

CCSc1cccnc1-c1cc2ncn(CC(F)(F)C(F)(F)F)c2cn1 [Compound P44, 6-(3-ethylsulfanyl-2-pyridyl)-3-(2,2,3,3,3-pentafluoropropyl) imidazo[4,5-c]pyridine]
≥ 80%: mortality at 200 ppm [4] | mortality at 24 ppm [5]

CCS(=O)(=O)c1cc(C(C)(C)C#N)cnc1-c1cc2ncn(CC(F)(F)C(F)(F)F)c2cn1 [Compound P40, 2-[5-ethylsulfonyl-6-[3-(2,2,3,3,3-pentafluoropropyl)imidazo[4,5-c]pyridin-6-yl]-3-pyridyl]-2-methyl-propanenitrile]
≥ 80%: percent effect (mortality or growth inhibition) at 200 ppm [1] | percent effect (mortality or growth inhibition) at 200 ppm [2] | percent effect (mortality or growth inhibition) at 200 ppm [3] | mortality at 200 ppm [4] | mortality at 24 ppm [5] | percent control (mortality, anti-feedant effect or growth inhibition) at 200 ppm [6]

CCS(=O)(=O)c1ccc(-c2ncccn2)nc1-c1cc2cnn(CC(F)(F)C(F)(F)F)c2cn1 [Compound P25, 5-(3-ethylsulfonyl-6-pyrimidin-2-yl-2-pyridyl)-1-(2,2,3,3,3-pentafluoropropyl) pyrazolo[3,4-c]pyridine]
≥ 80%: percent effect (mortality or growth inhibition) at 200 ppm [1] | percent effect (mortality or growth inhibition) at 200 ppm [2] | percent effect (mortality or growth inhibition) at 200 ppm [3] | mortality at 200 ppm [4] | mortality at 24 ppm [5] | percent control (mortality, anti-feedant effect or growth inhibition) at 200 ppm [6] | mortality at 200 ppm [7]

CCS(=O)(=O)c1cc(N(C)C(C)=O)cnc1-c1cc2ccn(CC(F)(F)C(F)(F)F)c2cn1 [Compound P16, N-[5-ethylsulfonyl-6-[1-(2,2,3,3,3-pentafluoropropyl)pyrrolo[2,3-c]pyridin-5-yl]-3-pyridyl]-N-methyl-acetamide]
≥ 80%: percent effect (mortality or growth inhibition) at 200 ppm [1] | percent effect (mortality or growth inhibition) at 200 ppm [3] | mortality at 200 ppm [4] | mortality at 24 ppm [5] | percent control (mortality, anti-feedant effect or growth inhibition) at 200 ppm [6]

CCS(=O)(=O)c1cc(C2CC2)cnc1-c1cc2ncn(CC(F)(F)C(F)(F)F)c2cn1 [Compound P52, 6-(5-cyclopropyl-3-ethylsulfonyl-2-pyridyl)-3-(2,2,3,3,3-pentafluoropropyl) imidazo[4,5-c]pyridine]
≥ 80%: percent effect (mortality or growth inhibition) at 200 ppm [1] | percent effect (mortality or growth inhibition) at 200 ppm [2] | percent effect (mortality or growth inhibition) at 200 ppm [3] | mortality at 24 ppm [5] | percent control (mortality, anti-feedant effect or growth inhibition) at 200 ppm [6]

CCS(=O)(=O)c1cccnc1-c1cc2cnn(CC(F)(F)C(F)(F)F)c2cn1 [Compound P4, 5-(3-ethylsulfonyl-2-pyridyl)-1-(2,2,3,3,3-pentafluoropropyl)pyrazolo[3,4-c]pyridine]
≥ 80%: percent effect (mortality or growth inhibition) at 200 ppm [1] | percent effect (mortality or growth inhibition) at 200 ppm [2] | percent effect (mortality or growth inhibition) at 200 ppm [3] | mortality at 200 ppm [4] | mortality at 24 ppm [5] | percent control (mortality, anti-feedant effect or growth inhibition) at 200 ppm [6]

CCSc1cc(C2(C#N)CC2)cnc1-c1cc2cnn(CC(F)(F)C(F)(F)F)c2cn1 [Compound P10, 1-[5-ethylsulfanyl-6-[1-(2,2,3,3,3-pentafluoropropyl)pyrazolo[3,4-c]pyridin-5-yl]-3-pyridyl]cyclopropanecarbonitrile]
≥ 80%: percent effect (mortality or growth inhibition) at 200 ppm [1] | percent effect (mortality or growth inhibition) at 200 ppm [2] | percent effect (mortality or growth inhibition) at 200 ppm [3] | percent control (mortality, anti-feedant effect or growth inhibition) at 200 ppm [6] | mortality at 200 ppm [7]

CCSc1cc(C(C)(C)C#N)cnc1-c1cc2ncn(CC(F)(F)C(F)(F)F)c2cn1 [Compound P47, 2-[5-ethylsulfanyl-6-[3-(2,2,3,3,3-pentafluoropropyl)imidazo[4,5-c]pyridin-6-yl]-3-pyridyl]-2-methyl-propanenitrile]
≥ 80%: percent effect (mortality or growth inhibition) at 200 ppm [1] | percent effect (mortality or growth inhibition) at 200 ppm [2] | percent effect (mortality or growth inhibition) at 200 ppm [3] | mortality at 200 ppm [7]

CCS(=O)(=O)c1ccc(N(C)C(C)=O)nc1-c1cc2cnn(CC(F)(F)C(F)(F)F)c2cn1 [Compound P12, N-[5-ethylsulfonyl-6-[1-(2,2,3,3,3-pentafluoropropyl)pyrazolo[3,4-c]pyridin-5-yl]-2-pyridyl]-N-methyl-acetamide]
≥ 80%: percent effect (mortality or growth inhibition) at 200 ppm [1] | percent effect (mortality or growth inhibition) at 200 ppm [2] | percent effect (mortality or growth inhibition) at 200 ppm [3] | mortality at 200 ppm [4] | mortality at 24 ppm [5] | percent control (mortality, anti-feedant effect or growth inhibition) at 200 ppm [6]

CCS(=O)(=O)c1cc(C(F)(F)F)cnc1-c1cc2cnn(CC(F)(F)C(F)(F)F)c2cn1 [Compound P31, 5-[3-ethylsulfonyl-5-(trifluoromethyl)-2-pyridyl]-1-(2,2,3,3,3-pentafluoropropyl) pyrazolo[3,4-c] pyridine]
≥ 80%: percent effect (mortality or growth inhibition) at 200 ppm [1] | percent effect (mortality or growth inhibition) at 200 ppm [2] | percent effect (mortality or growth inhibition) at 200 ppm [3] | percent control (mortality, anti-feedant effect or growth inhibition) at 200 ppm [6] | mortality at 200 ppm [8]
